Measured values published in PubChem BioAssay (NCI).
Where “and” joins values, the source holds several entries; their conditions need not be identical. Identical values can stand only once.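 48-hour exposure; five concentrations; linearly interpolated endpoints. GI50: concentration for 50% inhibition of growth. TGI: concentration producing complete growth inhibition.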

How the values were obtained:
Assay in all cases: growth of human tumour cells (NCI), 48 h
786-0 renal = system: 786-0 renal
A498 renal = system: A498 renal
A549 NSCLC = system: A549 NSCLC
ACHN renal = system: ACHN renal
BT-549 breast = system: BT-549 breast
CAKI-1 renal = system: CAKI-1 renal
CCRF-CEM leukemia = system: CCRF-CEM leukemia
COLO 205 colon = system: COLO 205 colon
DU-145 prostate = system: DU-145 prostate
EKVX NSCLC = system: EKVX NSCLC
HCC-2998 colon = system: HCC-2998 colon
HCT-116 colon = system: HCT-116 colon
HCT-15 colon = system: HCT-15 colon
HL-60(TB) leukemia = system: HL-60(TB) leukemia
HOP-62 NSCLC = system: HOP-62 NSCLC
HOP-92 NSCLC = system: HOP-92 NSCLC
HS 578T breast = system: HS 578T breast
HT29 colon = system: HT29 colon
IGROV1 ovarian = system: IGROV1 ovarian
K-562 leukemia = system: K-562 leukemia
KM12 colon = system: KM12 colon
LOX IMVI melanoma = system: LOX IMVI melanoma
M14 melanoma = system: M14 melanoma
MALME-3M melanoma = system: MALME-3M melanoma
MCF7 breast = system: MCF7 breast
MDA-MB-231 breast = system: MDA-MB-231 breast
MDA-MB-435 = system: MDA-MB-435
MOLT-4 leukemia = system: MOLT-4 leukemia
NCI-H226 lung = system: NCI-H226 lung
NCI-H23 lung = system: NCI-H23 lung
NCI-H460 lung = system: NCI-H460 lung
NCI-H522 lung = system: NCI-H522 lung
NCI/ADR-RES ovarian = system: NCI/ADR-RES ovarian
OVCAR-3 ovarian = system: OVCAR-3 ovarian
OVCAR-4 ovarian = system: OVCAR-4 ovarian
OVCAR-5 ovarian = system: OVCAR-5 ovarian
OVCAR-8 ovarian = system: OVCAR-8 ovarian
PC-3 prostate = system: PC-3 prostate
RPMI-8226 leukemia = system: RPMI-8226 leukemia
RXF 393 renal = system: RXF 393 renal
SF-268 CNS = system: SF-268 CNS
SF-295 CNS = system: SF-295 CNS
SF-539 CNS = system: SF-539 CNS
SK-MEL-2 melanoma = system: SK-MEL-2 melanoma
SK-MEL-28 melanoma = system: SK-MEL-28 melanoma
SK-MEL-5 melanoma = system: SK-MEL-5 melanoma
SK-OV-3 ovarian = system: SK-OV-3 ovarian
SN12C renal = system: SN12C renal
SNB-19 CNS = system: SNB-19 CNS
SNB-75 CNS = system: SNB-75 CNS
SR leukemia = system: SR leukemia
SW-620 colon = system: SW-620 colon
T-47D breast = system: T-47D breast
TK-10 renal = system: TK-10 renal
U251 CNS = system: U251 CNS
UACC-257 melanoma = system: UACC-257 melanoma
UACC-62 melanoma = system: UACC-62 melanoma
UO-31 renal = system: UO-31 renal

## CN1CCN(CCOc2cc(OC3CCOCC3)c3c(Nc4c(Cl)ccc5c4OCO5)ncnc3c2)CC1
786-0 renal
  GI50: 4.47 µM and > 10 µM
  TGI: 24.1 µM and > 10 µM
A498 renal
  GI50: 0.529 µM and 1.37 µM
  TGI: 4.52 µM and > 10 µM
A549 NSCLC
  GI50: 5.27 µM and 3.26 µM
  TGI: 25.9 µM and > 10 µM
ACHN renal
  GI50: 0.348 µM and 0.395 µM
  TGI: 14 µM and > 10 µM
BT-549 breast
  GI50: 15.6 µM and > 10 µM
  TGI: 30.7 µM and > 10 µM
CAKI-1 renal
  GI50: 0.571 µM and 0.644 µM
  TGI: 10.5 µM and > 10 µM
CCRF-CEM leukemia
  GI50: 21.5 µM and > 10 µM
  TGI: 76.3 µM and > 10 µM
COLO 205 colon
  GI50: 9.81 µM and 7.76 µM
  TGI: 24 µM and > 10 µM
DU-145 prostate
  GI50: 3.72 µM and 7.29 µM
  TGI: 39.7 µM and > 10 µM
EKVX NSCLC
  GI50: 1.04 µM and 0.732 µM
  TGI: 57.6 µM and > 10 µM
HCC-2998 colon
  GI50: 17.7 µM and > 10 µM
  TGI: 37.7 µM and > 10 µM
HCT-116 colon
  GI50: 8.75 µM and 2.76 µM
  TGI: 29.2 µM and > 10 µM
HCT-15 colon
  GI50: 4.18 µM and 3.26 µM
  TGI: 26.6 µM and > 10 µM
HL-60(TB) leukemia
  GI50: 18.7 µM and > 10 µM
  TGI: 37.8 µM and > 10 µM
HOP-62 NSCLC
  GI50: 5.48 µM and 8.53 µM
  TGI: 26.7 µM and > 10 µM
HOP-92 NSCLC
  GI50: 0.679 µM and 0.139 µM
  TGI: 11.4 µM and 5.64 µM
HS 578T breast
  GI50: 0.732 µM and 1.7 µM
  TGI: 11.2 µM and > 10 µM
HT29 colon
  GI50: 0.634 µM and 1.26 µM
  TGI: 5.47 µM and > 10 µM
IGROV1 ovarian
  GI50: 0.244 µM and 0.204 µM
  TGI: 2.72 µM and 3.05 µM
K-562 leukemia
  GI50: 0.382 µM and 0.47 µM
  TGI: 9.24 µM and > 10 µM
KM12 colon
  GI50: 1.32 µM and 2.23 µM
  TGI: 15.1 µM and > 10 µM
LOX IMVI melanoma
  GI50: 1.45 µM and 0.971 µM
  TGI: 16.2 µM and > 10 µM
M14 melanoma
  GI50: 15.4 µM and > 10 µM
  TGI: 31.3 µM and > 10 µM
MALME-3M melanoma
  GI50: 14.1 µM and > 10 µM
  TGI: 30.1 µM and > 10 µM
MCF7 breast
  GI50: 4.72 µM and > 10 µM
  TGI: 27.4 µM and > 10 µM
MDA-MB-231 breast
  GI50: 6.95 µM and 8.97 µM
  TGI: 24.1 µM and > 10 µM
MDA-MB-435
  GI50: 13.5 µM and > 10 µM
  TGI: 27.2 µM and > 10 µM
MOLT-4 leukemia
  GI50: 14.6 µM and > 10 µM
  TGI: 49.2 µM and > 10 µM
NCI-H226 lung
  GI50: 15.7 µM and > 10 µM
  TGI: 38.9 µM and > 10 µM
NCI-H23 lung
  GI50: 12.2 µM and > 10 µM
  TGI: 57.1 µM and > 10 µM
NCI-H460 lung
  GI50: 18.6 µM and > 10 µM
  TGI: 65.6 µM and > 10 µM
NCI-H522 lung
  GI50: 0.165 µM and 0.346 µM
  TGI: 2.5 µM and > 10 µM
NCI/ADR-RES ovarian
  GI50: 10.6 µM and 8.91 µM
  TGI: 56.8 µM and > 10 µM
OVCAR-3 ovarian
  GI50: 3.7 µM and 5.55 µM
  TGI: 22.2 µM and > 10 µM
OVCAR-4 ovarian
  GI50: 13.5 µM and > 10 µM
  TGI: 34.7 µM and > 10 µM
OVCAR-5 ovarian
  GI50: 1.13 µM and 1.35 µM
  TGI: 23.9 µM and > 10 µM
OVCAR-8 ovarian
  GI50: 8.55 µM and 8.64 µM
  TGI: 34 µM and > 10 µM
PC-3 prostate
  GI50: 19.3 µM and > 10 µM
  TGI: > 100 µM
RPMI-8226 leukemia
  GI50: 19.4 µM and > 10 µM
  TGI: 63.4 µM and > 10 µM
RXF 393 renal
  GI50: 0.788 µM and 1.02 µM
  TGI: 12.6 µM and > 10 µM
SF-268 CNS
  GI50: 4.72 µM and > 10 µM
  TGI: 33.8 µM and > 10 µM
SF-295 CNS
  GI50: 5.83 µM and > 10 µM
  TGI: 25.3 µM and > 10 µM
SF-539 CNS
  GI50: 6.5 µM and 6.41 µM
  TGI: 21.1 µM and > 10 µM
SK-MEL-2 melanoma
  GI50: 16.6 µM and > 10 µM
  TGI: 31.8 µM and > 10 µM
SK-MEL-28 melanoma
  GI50: 13.6 µM and > 10 µM
  TGI: 27.2 µM and > 10 µM
SK-MEL-5 melanoma
  GI50: 11.4 µM and > 10 µM
  TGI: 23.6 µM and > 10 µM
SK-OV-3 ovarian
  GI50: 0.441 µM and 0.345 µM
  TGI: 13.2 µM and > 10 µM
SN12C renal
  GI50: 0.736 µM and 3.31 µM
  TGI: 27.2 µM and > 10 µM
SNB-19 CNS
  GI50: 12.1 µM and > 10 µM
  TGI: > 100 µM
SNB-75 CNS
  GI50: 0.206 µM and 0.209 µM
  TGI: 3.47 µM and > 10 µM
SR leukemia
  GI50: 9.63 µM and 5.98 µM
  TGI: 37.4 µM and > 10 µM
SW-620 colon
  GI50: 17.5 µM and > 10 µM
  TGI: 33.6 µM and > 10 µM
T-47D breast
  GI50: 1.23 µM and 0.286 µM
  TGI: 22.3 µM and > 10 µM
TK-10 renal
  GI50: 0.671 µM and 0.517 µM
  TGI: 6.4 µM and > 10 µM
U251 CNS
  GI50: 11.2 µM and > 10 µM
  TGI: 31.1 µM and > 10 µM
UACC-257 melanoma
  GI50: 15.1 µM and > 10 µM
  TGI: 30.2 µM and > 10 µM
UACC-62 melanoma
  GI50: 14.8 µM
  TGI: 28.6 µM
UO-31 renal
  GI50: 0.42 µM and 0.373 µM
  TGI: 14.5 µM and > 10 µM
